# Results: patent US20070042963A1, “Therapeutic peptides” (Medarex, Inc., priority 2000, published 2007)
# Columns and labels:
# [1] = tested on: anti-IFN-R antibody (34F10); assay: Effect of peptide on binding of non-neutralizing anti-IFN-R antibody 34F10 to the IFN-R; conditions: epitope distant from the ligand binding site
# Mab 64G12 = assay: ELISA binding of peptides to Mab 64G12; set-up: species or system mouse; conditions: biotin-SGSG-peptide on streptavidin plates, peptide 20 μM, antibody 1 μg/ml
# Procedure: Binding of Peptides to Mab 64G12
# The 11 mer (SEQ ID no. 2) and a number of modified versions of that polypeptide derived by deletion or substitution were tested for ability to bind Mab 64G12 by ELISA. […]. The peptides were biotinylated at the N-terminus with a spacer sequence SGSG between the peptide and the biotin, i.e. biotin-SGSG-peptide.
# ELISA screening for ability to bind Mab 64G12 was carried out using Nunc Maxisorb plates coated with Streptavidin 5 μg/ml, 100 μl/well overnight at 37° C. The plates were then blocked with 200 μl/well of PBS containing 0.1% Tween 20, 1% sodium caseinate (CAST) for 1 hour at 20° C. Peptides were dissolved by adding 50 μl of DMSO and 0.6 ml of 40% acetonitrile to each tube. For peptide coating, 100 μl of PBS, 0.1% Tween 20 (PT) were added to each well, followed by 2 μl of each peptide solution (final peptide concentration 20 μM). After 30 mins, the monoclonal antibody was added at 1 μg/ml in PT for 1 hour at 20° C. The plates were washed and 100 μl/well of a 1/2000 dilution of horseradish peroxidase labeled goat anti-mouse IgG (H+L) in CAST plus 1% sheep serum (CASS) was added for 1 hour at 20° C. After washing, 100 μl of ABTS substrate was distributed to all wells. Absorbance was measured after 10 and 45 mins incubation on a plate reader using dual wavelength ([…]) to correct for background.
# IFN-R on Daudi cells = assay: Inhibition of Type 1-IFN binding to the IFN-R on Daudi cells: 125I-IFN-α2 binding in presence of Mab 64G12 with or without peptide; conditions: Mab 64G12 2 μg, 125I-labeled human IFN-α2 0.13 nM, 2 hours at 4° C.
# Procedure: Inhibition of Type 1-IFN Binding to the IFN-R on Daudi Cells.
# Cultures of exponentially growing Daudi cells (2 million cells/0.2 ml RPMI 1640 medium with 10% fetal calf serum) were treated with: Mab 64G12 (2 μg), alone or together with: (i) a soluble affinity purified recombinant polypeptide corresponding to amino acids 1 to 427 of the extracellular domain region sequence of the IFNAR1 chain as reported by Uze et al., 1990, Cell, 60, 224-234 (prepared as described in Benoit et al., 1993, J. Immunol., 150, 707-716 and Published International Application WO 92/18626 and purified first on a NI-NTA agarose column (Qiagen) and subsequently eluted with 300 mM imidazole. The eluted partially purified soluble IFNAR1 was then applied to a 5.0 ml 64G12 Mab sepharose column and eluted with 0.1 M glycine, pH 2.8. The eluted IFNAR1 was pure as determined by SDS-PAGE under denaturing conditions) or (ii) the peptide of SEQ ID no. 2 (the 11 mer). This was followed by the addition of ^125I-labeled human IFN-α2 (iodination as described by Mogensen et al., 1981, Int. J. Cancer, 28, 575-582; 90000 cpm, 0.13 nM) and incubation for 2 hours at 4° C. The cells were then washed 3 times with culture medium containing 1% fetal calf serum and the cell pellet counted in a gamma counter.
ability of antibody 34F10 to bind to the IFN-R [1],binding to Mab 64G12 by ELISA (Mab 64G12),Substance,IFN binding to the IFN-R in the presence of Mab 64G12 (IFN-R on Daudi cells)
does not affect,specifically bind,NFSSLKLNVYE (Modified peptide from Hu IFNAR1 receptor) [Peptide 12],restored IFN-binding to a high degree
–,only background binding,KLNVYE (Modified peptide from Hu IFNAR1 receptor) [Peptide 7],–
–,specifically bind,FSSLKLNVY (Modified peptide from Hu IFNAR1 receptor) [9 mer],–
